The molecules below were run against T1, human liver glycogen phosphorylase a (HLGPa) (Homo sapiens, UniProt P06737) (assay: Human liver glycogen phosphorylase a enzymatic activity assay (coupled, fluorescent resorufin readout, with and without 10 mM glucose)). Details: human liver glycogen phosphorylase a enzymatic activity assay.
T1 construct: creating a full-length cDNA fused at the 5′ end to codons for methionine-glycine-alanine-histidine; 6xHis tag (leader Met-Gly-Ala-His6-Gly-Gly) (N); made in house; host or cells: E. coli (bacterial expression plasmid pTXK1007LTev)
T1 sequence (P06737 2-847 limits assumed): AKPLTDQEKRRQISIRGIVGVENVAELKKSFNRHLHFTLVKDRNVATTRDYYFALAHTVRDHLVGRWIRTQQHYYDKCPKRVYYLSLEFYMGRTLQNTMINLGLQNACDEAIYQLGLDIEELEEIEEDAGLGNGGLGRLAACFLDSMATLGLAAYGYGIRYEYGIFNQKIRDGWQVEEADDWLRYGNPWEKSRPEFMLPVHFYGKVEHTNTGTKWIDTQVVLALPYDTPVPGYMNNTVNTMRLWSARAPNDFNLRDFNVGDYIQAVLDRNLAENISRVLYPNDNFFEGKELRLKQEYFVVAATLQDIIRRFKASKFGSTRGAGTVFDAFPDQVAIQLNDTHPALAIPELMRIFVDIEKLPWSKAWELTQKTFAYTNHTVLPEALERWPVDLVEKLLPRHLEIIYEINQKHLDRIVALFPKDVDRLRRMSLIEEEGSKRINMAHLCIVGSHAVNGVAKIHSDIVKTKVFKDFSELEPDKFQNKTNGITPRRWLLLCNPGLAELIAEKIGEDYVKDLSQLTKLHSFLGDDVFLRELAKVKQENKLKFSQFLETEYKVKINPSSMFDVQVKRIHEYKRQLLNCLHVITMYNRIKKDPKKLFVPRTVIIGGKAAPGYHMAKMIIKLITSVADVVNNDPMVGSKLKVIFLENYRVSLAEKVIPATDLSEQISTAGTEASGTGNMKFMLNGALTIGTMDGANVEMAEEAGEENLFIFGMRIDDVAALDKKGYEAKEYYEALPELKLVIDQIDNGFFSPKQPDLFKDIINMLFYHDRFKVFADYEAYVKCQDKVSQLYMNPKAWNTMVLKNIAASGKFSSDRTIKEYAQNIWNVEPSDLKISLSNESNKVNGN
Format: biochemical

IC50 [nM]	Compound
34	Cc1cccc(C)c1NC(=O)Nc1cc(-c2ccc(O)cc2)ccc1C(=O)N[C@H](C(=O)O)C1CCCCC1 [Example 187, (2S)-Cyclohexyl({[3-({[(2,6-dimethylphenyl)amino]carbonyl}amino)-4′-hydroxy-4-biphenylyl]carbonyl}amino)ethanoic acid]
74	Cc1cccc(C)c1NC(=O)Nc1cc(-c2ccc(F)c(F)c2)ccc1C(=O)N[C@H](C(=O)O)C1CCCCC1 [Example 188, (2S)-Cyclohexyl({[3-({[(2,6-dimethylphenyl)amino]carbonyl}amino)-3′,4′-difluoro-4-biphenylyl]carbonyl}amino)ethanoic acid]
330	Cc1cccc(C)c1NC(=O)Nc1cc(-c2cncnc2)ccc1C(=O)N[C@H](C(=O)O)C1CCCCC1 [Example 189, (2S)-Cyclohexyl({[2-({[(2,6-dimethylphenyl)amino]carbonyl}amino)-4-(5-pyrimidinyl)phenyl]carbonyl}amino)ethanoic acid]
700	Cc1cccc(C)c1NC(=O)Nc1cc(F)ccc1C(=O)N[C@H](C(=O)O)C1CCCCC1 [Example 190, (2S)-Cyclohexyl({[2-({[(2,6-dimethylphenyl)amino]carbonyl}amino)-4-fluorophenyl]carbonyl}amino)ethanoic acid]
32	COc1ccc(-c2ccc(C(=O)N[C@H](C(=O)O)C3CCCCC3)c(NC(=O)Nc3c(C)cccc3C)c2)cc1 [Example 191, (2S)-Cyclohexyl({[3-({[(2,6-dimethylphenyl)amino]carbonyl}amino)-4′-(methyloxy)-4-biphenylyl]carbonyl}amino)ethanoic acid]
120	Cc1cc(C)c(NC(=O)Nc2cc(F)ccc2C(=O)N[C@H](C(=O)O)C2CCCCC2)c(C)c1 [Example 192, (2S)-Cyclohexyl({[4-fluoro-2-({[(2,4,6-trimethylphenyl)amino]carbonyl}amino)phenyl]carbonyl}amino)ethanoic acid]
7	COc1ccc(-c2ccc(C(=O)N[C@H](C(=O)O)C3CCCCC3)c(NC(=O)Nc3c(C)cc(C)cc3C)c2)cc1 [Example 193, (2S)-Cyclohexyl({[4′-(methyloxy)-3-({[(2,4,6-trimethylphenyl)amino]carbonyl}amino)-4-biphenylyl]carbonyl}amino)ethanoic acid]
11	Cc1cc(C)c(NC(=O)Nc2cc(-c3ccc(O)cc3)ccc2C(=O)N[C@H](C(=O)O)C2CCCCC2)c(C)c1 [Example 194, (2S)-Cyclohexyl({[4′-hydroxy-3-({[(2,4,6-trimethylphenyl)amino]carbonyl}amino)-4-biphenylyl]carbonyl}amino)ethanoic acid]
550	Cc1cc(C)c(NC(=O)Nc2cc([N+](=O)[O-])ccc2C(=O)N[C@H](C(=O)O)C2CCCCC2)c(C)c1 [Example 195, (2S)-Cyclohexyl({[4-nitro-2-({[(2,4,6-trimethylphenyl)amino]carbonyl}amino)phenyl]carbonyl}amino)ethanoic acid]
110	Cc1cc(C)c(NC(=O)Nc2cc(N)ccc2C(=O)N[C@H](C(=O)O)C2CCCCC2)c(C)c1 [Example 196, (2S)-({[4-Amino-2-({[(2,4,6-trimethylphenyl)amino]carbonyl}-amino)phenyl]carbonyl}amino)(cyclohexyl)ethanoic acid]
14	Cc1cc(C)c(NC(=O)Nc2cc(-c3ccc([N+](=O)[O-])cc3)ccc2C(=O)N[C@H](C(=O)O)C2CCCCC2)c(C)c1 [Example 197, (2S)-Cyclohexyl({[4′-nitro-3-({[(2,4,6-trimethylphenyl)amino]carbonyl}amino)-4-biphenylyl]carbonyl}amino)ethanoic acid]
27	Cc1cc(C)c(NC(=O)Nc2cc(-c3ccc(CO)cc3)ccc2C(=O)N[C@H](C(=O)O)C2CCCCC2)c(C)c1 [Example 198, (2S)-Cyclohexyl({[4′-(hydroxymethyl)-3-({[(2,4,6-trimethylphenyl)amino]carbonyl}amino)-4-biphenylyl]carbonyl}amino)ethanoic acid]

Same assay, conditions: human liver glycogen phosphorylase a; table does not say whether with or without 10 mM glucose

IC50 [nM]	Compound
4	Cc1cc(C)c(NC(=O)Nc2cc(-c3ccc(N)cc3)ccc2C(=O)N[C@H](C(=O)O)C2CCCCC2)c(C)c1 [Example 199, (2S)-({[4′-Amino-3-({[(2,4,6-trimethylphenyl)amino]carbonyl}amino)-4-biphenylyl]carbonyl}amino)(cyclohexyl)ethanoic acid]
130	O=C(Nc1cc(-c2ccccc2)ccc1C(=O)N[C@H](C(=O)O)C1CCCCC1)Nc1c(Cl)cc(Cl)cc1Cl [Example 200, (2S)-Cyclohexyl({[3-({[(2,4,6-trichlorophenyl)amino]carbonyl}amino)-4-biphenylyl]carbonyl}amino)ethanoic acid]
670	COc1ccc(-c2ccc(C(=O)N[C@H](C(=O)O)C(C)(C)C)c(NC(=O)Nc3c(Cl)cc(Cl)cc3Cl)c2)cc1 [Example 201, 3-Methyl-N-{[4′-(methyloxy)-3-({[(2,4,6-trichlorophenyl)amino]carbonyl}amino)-4-biphenylyl]carbonyl}-L-valine]
140	COc1ccc(-c2ccc(C(=O)N[C@H](C(=O)O)C(C)(C)C)c(NC(=O)Nc3c(C)cc(C)cc3C)c2)cc1 [Example 202, 3-Methyl-N-{[4′-(methyloxy)-3-({[(2,4,6-trimethylphenyl)amino]carbonyl}amino)-4-biphenylyl]carbonyl}-L-valine]
75	O=C(Nc1cc(-c2ccccc2)ccc1C(=O)N[C@H](C(=O)O)C1CCCCC1)Nc1c(Cl)cccc1Cl [Example 203, (2S)-Cyclohexyl({[3-({[(2,6-dichlorophenyl)amino]carbonyl}amino)-4-biphenylyl]carbonyl}amino)ethanoic acid]
190	Cc1cc(C)c(NC(=O)Nc2cc(-c3ccc(OC(F)(F)F)cc3)ccc2C(=O)N[C@H](C(=O)O)C2CCCCC2)c(C)c1 [Example 204, (2S)-Cyclohexyl({[4′-[(trifluoromethyl)oxy]-3-({[(2,4,6-trimethylphenyl)amino]carbonyl}amino)-4-biphenylyl]carbonyl}amino)ethanoic acid]
140	COc1ccc(-c2ccc(C(=O)N[C@H](c3nn[nH]n3)C3CCCCC3)c(NC(=O)Nc3c(C)cc(C)cc3C)c2)cc1 [Example 205, N—[(S)-cyclohexyl(1H-tetrazol-5-yl)methyl]-4′-(methyloxy)-3-({[(2,4,6-trimethylphenyl)amino]carbonyl}amino)-4-biphenylcarboxamide]
96	CNC(=O)Nc1ccc(C(=O)N[C@H](C(=O)O)C2CCCCC2)c(NC(=O)Nc2c(C)cc(C)cc2C)c1 [Example 206]
16100	CCCCN(CCCC)c1ccc(C(=O)N[C@H](C(=O)O)C2CCCCC2)c(NC(=O)Nc2c(C)cc(C)cc2C)c1 [Example 207, (2S)-Cyclohexyl({[4-(dibutylamino)-2-({[(2,4,6-trimethylphenyl)amino]carbonyl}amino)phenyl]carbonyl}amino)ethanoic acid]
130	O=C(Nc1cc(F)ccc1C(=O)N[C@H](C(=O)O)C1CCCCC1)Nc1c(Cl)cc(OC(F)(F)F)cc1Cl [Example 208, (2S)-Cyclohexyl{[(2-{[({2,6-dichloro-4-[(trifluoromethyl)oxy]phenyl}amino)carbonyl]amino}-4-fluorophenyl)carbonyl]amino}ethanoic acid]
14	Cc1cc(C)c(NC(=O)Nc2cc(-c3ccc(F)c(F)c3)ccc2C(=O)N[C@H](C(=O)O)C2CCCCC2)c(C)c1 [Example 209, (2S)-Cyclohexyl({[3′,4′-difluoro-3-({[(2,4,6-trimethylphenyl)amino]carbonyl}amino)-4-biphenylyl]carbonyl}amino)ethanoic acid]
14	COc1ccc(-c2ccc(C(=O)N[C@H](C(=O)O)C3CCCC3)c(NC(=O)Nc3c(C)cc(C)cc3C)c2)cc1 [Example 210, (2S)-Cyclopentyl({[4′-(methyloxy)-3-({[(2,4,6-trimethylphenyl)amino]carbonyl}amino)-4-biphenylyl]carbonyl}amino)ethanoic acid]
290	Cc1cc(C)c(NC(=O)Nc2cc(F)ccc2C(=O)N[C@H](C(=O)O)C2CCCC2)c(C)c1 [Example 211, (2S)-Cyclopentyl({[4-fluoro-2-({[(2,4,6-trimethylphenyl)amino]carbonyl}amino)phenyl]carbonyl}amino)ethanoic acid]
17	O=C(Nc1cc(-c2ccc(F)c(F)c2)ccc1C(=O)N[C@H](C(=O)O)C1CCCCC1)Nc1c(Cl)cc(OC(F)(F)F)cc1Cl [Example 212, (2S)-Cyclohexyl{[(3-{[({2,6-dichloro-4-[(trifluoromethyl)oxy]phenyl}amino)carbonyl]amino}-3′,4′-difluoro-4-biphenylyl)carbonyl]amino}ethanoic acid]
